Reference: ChEMBL document CHEMBL5543140 (J Med Chem, 2024)
Activity calls are given as the source filed them. The rule behind the calls is not given here.

Tests used:
[1] = molecular target: T1, 5-hydroxytryptamine receptor 2A (Homo sapiens, UniProt P28223); assay: Displacement of [3H]LSD from human 5-HT2A receptor expressed in HEK293 cell membrane incubated for 90 mins by microbeta liquid scintillation counting method; format: cell membranes
Mus musculus [2] = assay: Psychedelic effect in C57BL/6J mouse assessed as number of head-twitch responses by visual observation at 3 mg/kg, po measured for 3 mins at 160 to 170 min; format: functional; conditions: 0.05 h
Mus musculus [3] = assay: Psychedelic effect in C57BL/6J mouse assessed as number of head-twitch responses by visual observation at 3 mg/kg, po measured for 3 mins at 5 to 25 min; format: functional; conditions: 0.05 h
[4] = Chemical stability of the compound in buffer solution at pH 1 to 6.8 measured for 5 days; format: physicochemical; conditions: pH 1, 120 h, time 5 day
[5] = Chemical stability of the compound in water measured for 5 days; format: physicochemical; conditions: buffer, 120 h; time 5 day
[6] = molecular target: 5-hydroxytryptamine receptor 2B (Homo sapiens, UniProt P41595); assay: Displacement of [3H]LSD from human 5-HT2B receptor expressed in HEK293 cell membrane incubated for 90 mins by microbeta liquid scintillation counting method; format: cell membranes
[7] = molecular target: T2, 5-hydroxytryptamine receptor 2C (Homo sapiens, UniProt P28335); assay: Displacement of [3H]LSD from human 5-HT2C receptor expressed in HEK293 cell membrane incubated for 90 mins by microbeta liquid scintillation counting method; format: cell membranes
T2 sequence (P28335 whole entry): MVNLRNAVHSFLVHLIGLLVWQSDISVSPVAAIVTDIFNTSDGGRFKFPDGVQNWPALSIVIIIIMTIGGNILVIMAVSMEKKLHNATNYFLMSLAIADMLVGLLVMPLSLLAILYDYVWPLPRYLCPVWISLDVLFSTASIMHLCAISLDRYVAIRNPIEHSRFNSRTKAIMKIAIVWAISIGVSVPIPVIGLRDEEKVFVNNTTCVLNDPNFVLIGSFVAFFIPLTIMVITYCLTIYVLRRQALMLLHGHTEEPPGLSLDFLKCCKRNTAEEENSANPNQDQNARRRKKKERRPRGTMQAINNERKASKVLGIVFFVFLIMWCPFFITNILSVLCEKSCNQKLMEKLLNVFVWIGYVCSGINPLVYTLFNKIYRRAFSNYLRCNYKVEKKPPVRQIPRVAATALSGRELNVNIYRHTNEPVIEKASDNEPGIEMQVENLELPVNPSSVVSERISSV

[8] = molecular target: T1, 5-hydroxytryptamine receptor 2A; assay: Agonist activity at human 5-HT2A receptor expressed in HEK293 cells assessed as maximal IP2 production measured after 30 mins incubation by HTRF assay relative to control; format: functional, cell-based; conditions: filed as agonist
[9] = molecular target: T1, 5-hydroxytryptamine receptor 2A; assay: Agonist activity at human 5-HT2A receptor expressed in HEK293 cells assessed as IP2 production measured after 30 mins incubation by HTRF assay; format: functional, cell-based
[10] = Lipophilicity, logP of the compound; format: physicochemical; conditions: octanol/water
Mus musculus [11] = assay: Psychedelic effect in C57BL/6J mouse assessed as number of head-twitch responses by visual observation at 3 to 30 mg/kg, po; format: functional, organism-based; conditions: dose 3-30 mg/kg
[12] = Metabolic stability of the compound assessed as recombinant human MAO-mediated oxidative metabolism by measuring compound remaining measured upto 120 mins by LC-MS/MS analysis; format: ADME; conditions: 2 h
[13] = Metabolic stability in Sprague-Dawley rat liver microsomes assessed as deuteration effect measured upto 120 mins by LC-MS/MS analysis; format: ADME, Microsome; conditions: 2 h

Chain of 5-hydroxytryptamine receptor 2B (P41595 whole entry): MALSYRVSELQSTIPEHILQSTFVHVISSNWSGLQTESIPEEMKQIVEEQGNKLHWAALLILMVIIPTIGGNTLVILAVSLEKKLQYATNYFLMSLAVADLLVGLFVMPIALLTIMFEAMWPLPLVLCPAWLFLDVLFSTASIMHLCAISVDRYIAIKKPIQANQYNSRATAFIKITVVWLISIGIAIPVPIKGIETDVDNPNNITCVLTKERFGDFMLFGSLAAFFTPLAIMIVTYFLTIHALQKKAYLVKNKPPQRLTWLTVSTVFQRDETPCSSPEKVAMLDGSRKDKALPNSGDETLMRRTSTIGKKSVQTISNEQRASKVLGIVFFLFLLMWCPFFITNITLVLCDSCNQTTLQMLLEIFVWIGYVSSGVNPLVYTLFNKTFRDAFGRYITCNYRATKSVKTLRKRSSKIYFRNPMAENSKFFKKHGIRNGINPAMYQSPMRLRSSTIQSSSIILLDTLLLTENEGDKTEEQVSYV
T1 sequence (P28223 whole entry): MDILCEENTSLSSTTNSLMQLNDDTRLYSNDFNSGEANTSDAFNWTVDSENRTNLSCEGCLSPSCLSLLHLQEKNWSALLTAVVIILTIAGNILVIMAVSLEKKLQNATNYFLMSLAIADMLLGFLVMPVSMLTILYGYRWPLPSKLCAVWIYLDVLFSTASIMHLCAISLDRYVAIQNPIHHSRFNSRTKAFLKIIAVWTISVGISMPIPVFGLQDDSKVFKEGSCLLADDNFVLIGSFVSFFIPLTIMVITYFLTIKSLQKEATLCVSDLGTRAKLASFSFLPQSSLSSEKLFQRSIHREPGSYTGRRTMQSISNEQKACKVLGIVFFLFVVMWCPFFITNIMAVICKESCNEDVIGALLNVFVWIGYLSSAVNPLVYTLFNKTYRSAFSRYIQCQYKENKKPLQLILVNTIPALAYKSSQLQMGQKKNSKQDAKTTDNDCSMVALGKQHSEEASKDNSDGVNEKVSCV

## COc1cc(OCCC(F)(F)F)c(OC)cc1CCN
[1]; read-out: Ki
  Ki: 477 nM

## COc1cc(SC(F)(F)F)c(OC)cc1CCN.Cl
Mus musculus [2]
  Activity: 30
Mus musculus [3]
  Activity: 21
[4]
  Stability: Stable
[5]
  Stability: Stable

## COc1cc(SC(F)F)c(OC)cc1CCN.Cl
Mus musculus [2]
  Activity: 17
[6]
  Ki: 24 nM
[1]; read-out: pKi (converted)
  Ki: 6.46 nM
Mus musculus [3]
  Activity: 33
[7]
  Ki: 16 nM

## COc1cc([S+]([O-])C(F)F)c(OC)cc1CCN.Cl (configuration not stated)
Mus musculus [2]
  Activity: 4
[6]
  Ki: 26 nM
[1]; read-out: Ki
  Ki: 27 nM
Mus musculus [3]
  Activity: 3
[7]
  Ki: 82 nM

## COc1cc(SCC(F)F)c(OC)cc1CCN
[1]; read-out: Ki
  Ki: 146 nM

## C#CCSc1cc(OC)c(CCN)cc1OC
[8]
  Emax: 100%
[9]; read-out: EC50
  EC50: 0.67 nM

## COc1cc(SC(F)(F)F)c(OC)cc1CC(C)N (configuration not stated)
[8]
  Emax: 91%
[9]; read-out: EC50
  EC50: 5.4 nM

## COc1cc(P(C)(C)=O)c(OC)cc1CCN.Cl
[10]
  logP: -1.67
[9]; hek293
  EC50: Not Active

## COc1cc(SCC(F)(F)C(F)F)c(OC)cc1CCN.Cl
Mus musculus [2]
  Activity: 5.6
[6]
  Ki: 4.5 nM
[1]; read-out: Ki
  Ki: 34 nM
[1]; read-out: pKi (converted)
  Ki: 38 nM
Mus musculus [3]
  Activity: 3.1
[7]
  Ki: 11 nM

## COc1cc([S+]([O-])C(F)(F)F)c(OC)cc1CCN.Cl (configuration not stated)
Mus musculus [2]
  Activity: 18
[6]
  Ki: 6.5 nM
[1]; read-out: Ki
  Ki: 19 nM
Mus musculus [3]
  Activity: 17
[7]
  Ki: 21 nM

## COc1cc(SC(F)(F)F)c(OC)cc1CCNCC1CC1
[8]
  Emax: 63%
[9]; read-out: EC50
  EC50: 48 nM
[1]; read-out: Ki
  Ki: 8.9 nM
Mus musculus [11]
  Activity: inactive

## Cl.[2H]C([2H])([2H])Oc1cc(SC)c(OC([2H])([2H])[2H])cc1CCN
[12]
  Stability: Stable
[13]
  Stability: Stable

## COc1cc(SSC(C)(C)C)c(OC)cc1CCN.Cl
Mus musculus [2]
  Activity: 4.8
[6]
  Ki: 10 nM
[1]; read-out: Ki
  Ki: 59 nM
Mus musculus [3]
  Activity: 0.6
[7]
  Ki: 26 nM

## Cl.[2H]C([2H])(N)Cc1cc(OC)c(C(F)(F)F)cc1OC
[12]
  Stability: Stable
[13]
  Stability: Stable

## Cl.[2H]C([2H])([2H])Oc1cc(SC)c(OC([2H])([2H])[2H])cc1C[C@@H](C)N
[12]
  Stability: Stable
[13]
  Stability: Stable

## COc1cc(C(=O)C(C)(C)C)c(OC)cc1CCN
[10]
  logP: 2.34
[9]; read-out: EC50
  EC50: 850 nM

## COc1cc(C2CCCC2)c(OC)cc1CCN
[1]; read-out: Ki
  Ki: 134 nM

## Cl.[2H]C([2H])([2H])Oc1cc(C(F)(F)F)c(OC([2H])([2H])[2H])cc1CCN
[12]
  Stability: Stable
[13]
  Stability: Stable

## COc1cc(SC(C)(C)C)c(OC)cc1CCN
[9]; read-out: EC50
  EC50: 150 nM
Mus musculus [11]
  Activity: inactive

## COc1cc(SC)c(OC)cc1C[C@@H](C)N.Cl
[12]
  Stability: Stable
[13]
  Stability: Stable

## COc1cc(SCC#N)c(OC)cc1CCN
[8]
  Emax: 77%
[9]; read-out: EC50
  EC50: 6.1 nM
[1]; read-out: Ki
  Ki: 36 nM

## COc1cc(S(=O)(=O)C(C)(C)C)c(OC)cc1CCN
[9]; read-out: EC50
  EC50: 530 nM

## COc1cc(SSC(F)(F)F)c(OC)cc1CCN.Cl
Mus musculus [2]
  Activity: 3.4
[6]
  Ki: 66 nM
[1]; read-out: Ki
  Ki: 78 nM
Mus musculus [3]
  Activity: 1.8
[7]
  Ki: 67 nM

## Cl.[2H]C([2H])([2H])Oc1cc(C(C)(C)C)c(OC([2H])([2H])[2H])cc1CCN
[12]
  Stability: Stable
[13]
  Stability: Stable

## COc1cc(CCN)cc(OC)c1SC(F)(F)F
[8]
  Emax: 96%
[9]; read-out: EC50
  EC50: 41 nM
[1]; read-out: Ki
  Ki: 45 nM

## COc1cc(N(C(C)C)C(C)C)c(OC)cc1CCN.Cl.Cl
[10]
  logP: 2.7
[9]; hek293
  EC50: Not Active

## COc1cc(OCCC(F)F)c(OC)cc1CCN
[1]; read-out: Ki
  Ki: 387 nM

## COc1cc(SCCCF)c(OC)cc1CCN
Mus musculus [2]
  Activity: 4.7
[6]
  Ki: 6.2 nM
Mus musculus [3]
  Activity: 7.4
[7]
  Ki: 6.9 nM

## COc1cc(SCCC(F)(F)F)c(OC)cc1CCN.Cl
Mus musculus [2]
  Activity: 6.1
[6]
  Ki: 5.5 nM
[1]; read-out: Ki
  Ki: 10 nM
Mus musculus [3]
  Activity: 3.3
[7]
  Ki: 11 nM

## COc1cc(S(=O)(=O)C(F)F)c(OC)cc1CCN.Cl
Mus musculus [2]
  Activity: 1.7
[6]
  Ki: 20 nM
[1]; read-out: Ki
  Ki: 11 nM
Mus musculus [3]
  Activity: 5
[7]
  Ki: 83 nM

## C#CCCCSc1cc(OC)c(CCN)cc1OC
[8]
  Emax: 78%
[9]; read-out: EC50
  EC50: 1.8 nM
[1]; read-out: Ki
  Ki: 2.3 nM

## Cl.[2H]C([2H])(N)Cc1cc(OC)c(SC)cc1OC
[12]
  Stability: Stable
[13]
  Stability: Stable

## COc1cc(SCCCCF)c(OC)cc1CCN
[1]; read-out: Ki
  Ki: 47 nM

## COc1cc(OCCCF)c(OC)cc1CCN
[1]; read-out: Ki
  Ki: 1640 nM
[1]; read-out: pKi (converted)
  Ki: 1700 nM

## COc1cc(S(=O)(=O)CF)c(OC)cc1CCN.Cl
Mus musculus [2]
  Activity: 2.3
[6]
  Ki: 28 nM
[1]; read-out: Ki
  Ki: 5.9 nM
[1]; read-out: pKi (converted)
  Ki: 6.03 nM
Mus musculus [3]
  Activity: 1.7
[7]
  Ki: 26 nM

## COc1cc(C(C)=O)c(OC)cc1CCN.Cl
[10]
  logP: 0.42
[9]; hek293
  EC50: Not Active

## COc1cc(C[C@H](C)N)c(O)cc1SC.Cl
[12]
  Stability: Stable
[13]
  Stability: Stable

## COc1cc(SCCC(F)F)c(OC)cc1CCN.Cl
Mus musculus [2]
  Activity: 2.6
[6]
  Ki: 6.8 nM
[1]; read-out: Ki
  Ki: 23 nM
Mus musculus [3]
  Activity: 5
[7]
  Ki: 8.9 nM

## Cl.[2H]C([2H])([2H])Oc1cc(C2CCCC2)c(OC([2H])([2H])[2H])cc1CCN
[12]
  Stability: Stable
[13]
  Stability: Stable

## Cl.[2H]C([2H])([2H])C(c1cc(OC)c(CCN)cc1OC)(C([2H])([2H])[2H])C([2H])([2H])[2H]
[12]
  Stability: Stable
[13]
  Stability: Stable

## COc1cc(S(=O)(=O)C(F)(F)F)c(OC)cc1CCN.Cl
Mus musculus [2]
  Activity: 28
[6]
  Ki: 8.4 nM
[1]; read-out: Ki
  Ki: 1.9 nM
Mus musculus [3]
  Activity: 26
[7]
  Ki: 13 nM

## Cl.[2H]C([2H])([2H])Oc1cc(SC)c(OC([2H])([2H])[2H])cc1C[C@H](C)N
[12]
  Stability: Stable
[13]
  Stability: Stable
